How the values were obtained:
[1] = target: T1, Histone-lysine N-methyltransferase EHMT1 (Homo sapiens, UniProt Q9H9B1); test: Binding affinity to human recombinant GLP catalytic domain amino acid 951 to 1235 expressed in Escherichia coli BL21 (DE3) by isothermal titration calorimetry assay
T1 sequence (Q9H9B1 whole entry): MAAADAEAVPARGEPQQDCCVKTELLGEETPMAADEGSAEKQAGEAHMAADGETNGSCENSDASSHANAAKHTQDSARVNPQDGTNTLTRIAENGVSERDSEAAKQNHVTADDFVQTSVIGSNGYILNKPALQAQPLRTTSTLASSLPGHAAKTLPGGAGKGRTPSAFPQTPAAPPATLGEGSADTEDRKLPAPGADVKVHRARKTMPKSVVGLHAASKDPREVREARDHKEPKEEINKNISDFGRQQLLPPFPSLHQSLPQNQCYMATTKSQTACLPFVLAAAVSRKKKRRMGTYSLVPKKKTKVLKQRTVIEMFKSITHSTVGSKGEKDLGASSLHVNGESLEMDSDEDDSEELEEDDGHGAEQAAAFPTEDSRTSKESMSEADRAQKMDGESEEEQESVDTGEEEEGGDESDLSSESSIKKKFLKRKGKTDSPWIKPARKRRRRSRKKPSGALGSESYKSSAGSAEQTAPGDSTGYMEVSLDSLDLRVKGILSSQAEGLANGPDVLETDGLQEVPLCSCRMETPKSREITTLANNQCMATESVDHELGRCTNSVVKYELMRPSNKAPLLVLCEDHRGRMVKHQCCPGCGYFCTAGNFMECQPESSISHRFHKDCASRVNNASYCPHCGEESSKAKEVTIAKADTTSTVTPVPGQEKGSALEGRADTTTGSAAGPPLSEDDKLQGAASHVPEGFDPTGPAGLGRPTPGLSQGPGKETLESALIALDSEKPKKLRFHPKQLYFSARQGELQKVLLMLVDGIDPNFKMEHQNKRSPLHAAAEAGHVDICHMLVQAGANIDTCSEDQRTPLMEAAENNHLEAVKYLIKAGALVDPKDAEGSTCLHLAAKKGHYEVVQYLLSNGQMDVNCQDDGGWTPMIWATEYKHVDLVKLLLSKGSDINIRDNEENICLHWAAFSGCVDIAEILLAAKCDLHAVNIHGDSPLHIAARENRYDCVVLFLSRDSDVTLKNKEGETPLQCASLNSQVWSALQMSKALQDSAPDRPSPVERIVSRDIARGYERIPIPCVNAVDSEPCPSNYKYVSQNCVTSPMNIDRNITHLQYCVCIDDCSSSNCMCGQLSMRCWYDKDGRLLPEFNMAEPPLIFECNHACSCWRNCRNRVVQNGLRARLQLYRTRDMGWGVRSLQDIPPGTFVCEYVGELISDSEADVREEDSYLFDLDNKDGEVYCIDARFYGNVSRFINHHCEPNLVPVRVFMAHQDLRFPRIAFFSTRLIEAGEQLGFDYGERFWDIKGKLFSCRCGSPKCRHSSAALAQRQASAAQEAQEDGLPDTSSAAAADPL

[2] = target: T2, Histone-lysine N-methyltransferase EHMT2 (Homo sapiens, UniProt Q96KQ7); test: Inhibition of human recombinant G9a catalytic domain amino acid 913 to 1193 expressed in Escherichia coli BL21 (DE3) by mass spectrophotometric assay
T2 sequence (Q96KQ7 whole entry): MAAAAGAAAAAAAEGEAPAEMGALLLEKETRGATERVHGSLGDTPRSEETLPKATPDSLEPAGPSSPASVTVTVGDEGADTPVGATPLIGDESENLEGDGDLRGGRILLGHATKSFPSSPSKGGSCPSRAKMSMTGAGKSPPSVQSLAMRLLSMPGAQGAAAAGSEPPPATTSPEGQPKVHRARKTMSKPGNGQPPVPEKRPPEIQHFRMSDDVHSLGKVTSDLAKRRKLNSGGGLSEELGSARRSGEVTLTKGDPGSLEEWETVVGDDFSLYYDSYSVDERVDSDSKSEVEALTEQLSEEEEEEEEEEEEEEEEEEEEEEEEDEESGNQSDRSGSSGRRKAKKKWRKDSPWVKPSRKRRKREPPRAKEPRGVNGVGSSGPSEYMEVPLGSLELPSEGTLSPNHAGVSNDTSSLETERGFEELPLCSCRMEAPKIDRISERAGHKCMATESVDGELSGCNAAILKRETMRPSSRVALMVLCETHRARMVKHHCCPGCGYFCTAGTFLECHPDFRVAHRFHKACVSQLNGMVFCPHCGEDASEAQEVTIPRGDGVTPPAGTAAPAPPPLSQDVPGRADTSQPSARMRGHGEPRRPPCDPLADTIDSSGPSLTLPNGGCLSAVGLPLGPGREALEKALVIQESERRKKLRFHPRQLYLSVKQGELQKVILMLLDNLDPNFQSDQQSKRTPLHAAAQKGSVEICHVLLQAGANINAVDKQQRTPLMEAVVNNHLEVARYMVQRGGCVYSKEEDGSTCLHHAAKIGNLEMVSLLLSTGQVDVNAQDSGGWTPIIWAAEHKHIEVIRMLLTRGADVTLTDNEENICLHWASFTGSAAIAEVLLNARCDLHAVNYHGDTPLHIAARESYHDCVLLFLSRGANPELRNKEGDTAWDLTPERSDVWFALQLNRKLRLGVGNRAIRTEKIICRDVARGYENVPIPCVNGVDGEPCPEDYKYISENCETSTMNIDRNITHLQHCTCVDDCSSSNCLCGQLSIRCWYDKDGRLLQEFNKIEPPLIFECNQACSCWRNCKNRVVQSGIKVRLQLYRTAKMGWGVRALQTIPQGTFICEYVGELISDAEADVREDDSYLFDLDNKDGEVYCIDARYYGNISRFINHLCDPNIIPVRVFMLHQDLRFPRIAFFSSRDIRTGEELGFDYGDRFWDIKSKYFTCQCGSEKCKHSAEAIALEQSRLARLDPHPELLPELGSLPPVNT

[3] = target: T2, Histone-lysine N-methyltransferase EHMT2; test: Binding affinity to human recombinant G9a catalytic domain amino acid 913 to 1193 expressed in Escherichia coli BL21 (DE3) by isothermal titration calorimetry assay
[4] = Inhibition of Neurospora crassa dim5
[5] = target: T3, Histone-lysine N-methyltransferase Set8 (Drosophila melanogaster, UniProt Q9VFK6); test: Inhibition of Drosophila melanogaster PRSET7
T3 sequence (Q9VFK6 whole entry): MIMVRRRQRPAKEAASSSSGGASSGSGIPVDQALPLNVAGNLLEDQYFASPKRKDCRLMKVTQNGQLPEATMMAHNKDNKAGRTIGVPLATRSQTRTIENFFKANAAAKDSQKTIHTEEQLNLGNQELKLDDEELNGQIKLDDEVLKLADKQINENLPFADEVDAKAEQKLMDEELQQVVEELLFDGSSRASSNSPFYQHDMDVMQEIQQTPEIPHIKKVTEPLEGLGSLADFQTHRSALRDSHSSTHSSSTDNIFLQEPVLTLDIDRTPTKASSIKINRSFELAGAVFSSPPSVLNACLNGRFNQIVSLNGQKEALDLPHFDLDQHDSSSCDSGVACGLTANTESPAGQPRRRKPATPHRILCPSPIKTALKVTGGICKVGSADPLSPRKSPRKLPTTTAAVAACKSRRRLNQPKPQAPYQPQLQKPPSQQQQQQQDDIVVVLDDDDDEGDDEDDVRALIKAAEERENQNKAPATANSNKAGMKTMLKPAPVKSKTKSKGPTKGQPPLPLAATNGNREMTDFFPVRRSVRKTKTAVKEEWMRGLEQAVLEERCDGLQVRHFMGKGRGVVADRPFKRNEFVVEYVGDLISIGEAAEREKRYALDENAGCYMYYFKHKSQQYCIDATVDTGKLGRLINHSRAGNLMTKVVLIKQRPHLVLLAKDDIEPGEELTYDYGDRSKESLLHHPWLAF

[6] = target: Histone-lysine N-methyltransferase E(z) (Drosophila melanogaster, UniProt P42124); test: Inhibition of Drosophila melanogaster E(Z)
Histone-lysine N-methyltransferase E(z), sequence (P42124 whole entry): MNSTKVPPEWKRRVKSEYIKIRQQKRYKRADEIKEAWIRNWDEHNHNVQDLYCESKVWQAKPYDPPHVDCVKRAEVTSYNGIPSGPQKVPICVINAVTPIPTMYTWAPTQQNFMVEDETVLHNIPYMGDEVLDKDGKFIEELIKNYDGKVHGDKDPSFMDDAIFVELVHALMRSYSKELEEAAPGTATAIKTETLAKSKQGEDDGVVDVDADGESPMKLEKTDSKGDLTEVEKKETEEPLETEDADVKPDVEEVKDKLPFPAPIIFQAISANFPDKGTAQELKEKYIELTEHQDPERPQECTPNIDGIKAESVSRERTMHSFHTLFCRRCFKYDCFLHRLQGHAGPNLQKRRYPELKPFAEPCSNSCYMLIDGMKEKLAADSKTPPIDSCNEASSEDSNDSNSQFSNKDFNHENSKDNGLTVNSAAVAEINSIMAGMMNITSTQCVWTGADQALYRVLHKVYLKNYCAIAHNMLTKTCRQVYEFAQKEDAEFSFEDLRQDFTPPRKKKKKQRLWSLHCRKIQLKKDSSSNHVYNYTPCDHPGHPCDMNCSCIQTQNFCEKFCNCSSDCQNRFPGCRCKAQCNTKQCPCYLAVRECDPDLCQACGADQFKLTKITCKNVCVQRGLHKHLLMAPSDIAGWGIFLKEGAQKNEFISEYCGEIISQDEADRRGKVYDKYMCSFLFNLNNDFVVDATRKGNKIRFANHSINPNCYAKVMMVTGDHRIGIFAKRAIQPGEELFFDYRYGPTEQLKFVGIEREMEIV

[7] = target: T4, Histone-lysine N-methyltransferase SUV39H1 (Homo sapiens, UniProt O43463); test: Inhibition of human SUV39H1
T4 sequence (O43463 whole entry): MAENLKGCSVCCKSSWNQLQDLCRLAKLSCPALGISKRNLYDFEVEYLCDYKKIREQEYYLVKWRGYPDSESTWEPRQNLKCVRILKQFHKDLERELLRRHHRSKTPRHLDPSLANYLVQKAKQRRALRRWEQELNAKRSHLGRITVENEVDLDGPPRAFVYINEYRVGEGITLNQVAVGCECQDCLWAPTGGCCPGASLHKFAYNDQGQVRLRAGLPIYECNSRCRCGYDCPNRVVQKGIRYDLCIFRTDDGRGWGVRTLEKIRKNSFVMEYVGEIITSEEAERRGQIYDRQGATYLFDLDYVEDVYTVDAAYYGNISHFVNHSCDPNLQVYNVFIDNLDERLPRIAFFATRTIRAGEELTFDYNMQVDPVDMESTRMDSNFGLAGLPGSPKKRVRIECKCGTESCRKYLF

[8] = Inhibition of Drosophila melanogaster SET7/9
[9] = target: T2, Histone-lysine N-methyltransferase EHMT2
Description: Inhibition of GST-tagged G9a after 1 hr by radioactive filter-binding assay

SMILES: COc1cc2c(NC3CCN(CCCCCN)CC3)nc(NCCCN(C)C)nc2cc1OCCCCCN
- Kd [1]: 136 nM
- IC50 [2]: 1300 nM
- Kd [3]: 164 nM

SMILES: CN1C(=O)[C@@]23C[C@]4([C@]56C[C@@]78SS[C@@](CO)(C(=O)N7[C@H]5Nc5ccccc56)N(C)C8=O)c5ccccc5N[C@@H]4N2C(=O)[C@]1(CO)SS3 [CHAETOCIN]
- IC50 [4]: 3000 nM
- IC50 [5]: > 90000 nM
- IC50 [6]: > 90000 nM
- IC50 [7]: 800 nM
- IC50 [8]: > 90000 nM
- IC50 [9]: 2400 nM

Source: ChEMBL document CHEMBL2169811, “Oncoepigenomics: making histone lysine methylation count” (Eur J Med Chem, 2012)
